The nature of one data set: in vitro. It is filed as cell-based. The conditions noted are these: human; 24h and 48h of exposure; MTT and resazurin; MM6, HEK293, HaCaT, HeLa, HT-29; read-out: cytotoxicity (viability), concentration. How it is done:
(§1) Cytotoxicity assays were conducted on 5 different mammalian cell lines after 24h and 48h of exposure to the various compounds, using the colorimetric tetrazolium dye MTT and the fluorometric resazurin (Alamar Blue): MM6 (human cell line with characteristics of mature monocytes), HEK293 (human embryonic kidney cells), HaCaT (human keratinocyte cell line), HeLa (human cervical cancer cell line) and HT-29 (human colon cancer cell line).

In data set [1] the test system is MM6, HEK293, HaCaT, HeLa and HT-29. As to the kind of experiment: Cytotoxicity assays (MTT and resazurin/Alamar Blue) on 5 mammalian cell lines. In kind it is cell-based, human. The conditions noted are these: 24h and 48h of exposure. On the procedure:
as §1
(Alamar Blue is a resazurin reagent that responds to reducing activity.)

A further data set is described as follows: Solubility remark. It is filed as physicochemical. Particulars: compared with L15; reason why only L15 was used in mice.
The test system of data set [2] is peripheral blood mononuclear cells (PBMCs). The data set can be described thus: Cytokine production by stimulated peripheral blood mononuclear cells (LegendPlex-Kits). In kind it is cell-based. The conditions noted are these: PBMCs from different donors; MDP 20 µg/ml, others 6 and 30 µg/ml. How it is done: (§2) The figures show: • Figure 1: Extent of sequence homology of the nine Lpl proteins encoded by the lpl operon in S. aureus USA300. […] LSP, leader signal peptide. Total length without LSP is 267 aa. We have chosen Lpli as a prototype of Lpl proteins for further studies. • Figure 2: L13 and L15 inhibit S. aureus internalization by HaCaT cells and N/TERT1 cells. N/TERT-1 are immortalized human keratinocytes. L15 was used at 20 µM), L13 at 30 µM and geldanamycin at 5 µM. SNC1 is representative for the many peptides that had no effect • Figure 3: Alignment of Lpl protein homologs. (A) Multiple sequence alignment of Lpls generated by using SnapGene software. Amino acids that match the Lpli sequence are highlighted in yellow. […] A therapeutic model (treatment at intervals post-infection) is already envisaged in the course of this project. • Figure 5: Quantification of the secreted cytokine IL-23 after stimulation of peripheral blood mononuclear cells of different donors with various cell wall components of Staphylococcus aureus. […] The measured IL-23 concentrations are depicted in pg/ml ± standard error of mean (SEM). • Figure 6: Prediction of Lpli structure and localization of L15 (top row, binding area indicated by white arrows) and L13 (bottom row, binding area indicated by white arrows) in Lpli. […]

Another data set deals with Hsp90. Particulars: upon Hsp90 inhibition (Taiyab & Rao Ch, 2011); cited from earlier work.
A further data set concerns S. aureus. As to the kind of experiment: Septic arthritis mouse model (mouse sepsis model). In kind it is in vivo. Particulars: mice treated with L15. On the procedure:
as §2

Where no end group is shown, it is not given here. A value given as a limit tells only on which side of the number the result lay.

Take `COC1=C2C[C@@H](C)C[C@H](OC)[C@H](O)[C@@H](C)/C=C(\C)[C@H](OC(N)=O)[C@@H](OC)/C=C\C=C(/C)C(=O)NC(=CC1=O)C2=O` [geldanamycin]: the MCC in “in vitro” is no more than 10 µM.

For the compound GHYFVTTFY [Peptide L13, GHYFVTTFY], the “cytotoxicity (viability), concentration” value in data set [1] was greater than 100 µM. In addition, in the data set “Solubility remark”, the solubility entry is listed as “less soluble”.

Consider `CC(=O)N[C@H]1C(O)O[C@H](CO)[C@@H](O)[C@@H]1O[C@H](C)C(=O)N[C@@H](C)C(=O)N[C@H](CCC(=O)O)C(N)=O` (mixture of isomers) [Muramyl Dipeptide (MDP), Muramyl Dipeptide], for which, in data set [2], the “levels of TNF, IL-1β, IL-6 or IL-10 induced” value is given as “high levels”.

With `C=CCNC1=C2C[C@@H](C)C[C@H](OC)[C@H](O)[C@@H](C)/C=C(\C)[C@H](OC(N)=O)[C@@H](OC)/C=C\C=C(/C)C(=O)NC(=CC1=O)C2=O` [Peptide 17AAG, 17AAG], the F-actin formation result in the data set with Hsp90 is recorded as “decreased”.

For “TAKGHYFVTTFYRNG [Peptide L15, TAKGHYFVTTFYRNG]”, the “cytotoxicity (viability), concentration” value in data set [1] was greater than 100 µM. Further, the “behaviour of treated mice (side observation)” value in the data set with S. aureus is given as “hyperactive”.
